Data set [1] can be described thus: Plasma concentration in mouse at 0.3 mg/kg, po after 30 mins. The data set is classed as ADME, organism-based.
Data set [2] can be described thus: Drug uptake in mouse brain at 0.3 mg/kg, po after 30 mins. Type of data set: ADME, organism-based. The note with it: read-out: Drug uptake.

Among the data in ChEMBL document CHEMBL3994648, “Design and synthesis of a novel series of 4-heteroarylamino-1'-azaspiro[oxazole-5,3'-bicyclo[2.2.2]octanes as α7 nicotinic receptor agonists 2. Development of 4-heteroaryl SAR” (Bioorg Med Chem Lett, 2017) are concentration values, retold here.

For the compound `c1ccc(-c2cc(NC3=NC[C@@]4(CN5CCC4CC5)O3)ncn2)cc1`, the concentration at 0.5 h was found to be 0.273 µM in data set [1] and 0.081 µM in data set [2].
